We go through 15 molecules from patent US9012412B2, “Dual SGLT1/SGLT2 inhibitors” (Janssen Pharmaceutica NV, priority 2013, dated 2015).

One assay has as its target T1, human SGLT1 (Homo sapiens, UniProt P13866).
T1 construct: expressed in transfected cells
T1 sequence (P13866 1-664): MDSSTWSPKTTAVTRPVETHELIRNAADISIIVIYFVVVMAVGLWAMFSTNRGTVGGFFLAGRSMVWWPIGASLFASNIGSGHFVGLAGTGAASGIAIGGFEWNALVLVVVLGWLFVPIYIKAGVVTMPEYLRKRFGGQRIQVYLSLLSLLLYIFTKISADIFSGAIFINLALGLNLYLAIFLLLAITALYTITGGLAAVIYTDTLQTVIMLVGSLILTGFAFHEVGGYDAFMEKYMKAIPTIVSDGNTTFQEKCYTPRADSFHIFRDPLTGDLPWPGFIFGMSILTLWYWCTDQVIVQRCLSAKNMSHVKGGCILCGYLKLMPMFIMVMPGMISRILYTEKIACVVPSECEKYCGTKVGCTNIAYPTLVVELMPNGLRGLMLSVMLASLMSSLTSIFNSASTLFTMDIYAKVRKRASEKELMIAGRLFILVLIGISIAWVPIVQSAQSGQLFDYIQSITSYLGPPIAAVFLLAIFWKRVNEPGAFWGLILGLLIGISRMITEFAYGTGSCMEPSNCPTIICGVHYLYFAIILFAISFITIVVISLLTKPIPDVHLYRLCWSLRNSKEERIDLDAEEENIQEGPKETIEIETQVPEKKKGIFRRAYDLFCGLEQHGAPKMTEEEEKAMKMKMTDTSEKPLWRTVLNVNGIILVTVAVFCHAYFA
In words: Sodium-dependent 14C-methyl-α-D-glucopyranoside uptake in CHO-K1 cells stably expressing human SGLT1. It counts as cell-based. To be noted: for inhibition at 3 µM: compound at 3 μM; for IC50: 14C-methyl-α-D-glucopyranoside uptake; for inhibition at 0.1 µM: compound at 0.1 μM. Here is the method: (§1) SGLT1 and SGLT2 were cloned in form of cDNA from human small intestine (Genbank M24847), and from human kidney (Genbank M95549), respectively. Subsequently, each full cDNA was subcloned into pcDNA with each construct's integrity verified through follow-on sequencing. To generate CHO-K1 cells that stably express human SGLT1 or human SGLT2 CHO-K1 cells were transfected using DMRIE-C reagent (Life Technologies, Gaithersburg, Md.). Transfected cells were then selected in the presence of 500 μg/ml of the antibiotic G418 (Gibco-BRL, Grand Island, N.Y.). Individual clones were then characterized using the following cell-based assay for sodium-dependent glucose transport.
(§2) First, cell lines stably expressing human SGLT1 or SGLT2 were seeded at a density of 65,000 cells per well per 200 μl cell culture medium with 10 mM of NaButyrate (Aldrich Catalog No. 30341-0) in a 96-well flat bottom plate (COSTAR, Catalog No. 3903). For human SGLT1 or SGLT2 expressing CHO-K1 cells the culture medium comprised Ham's F-12 (Invitrogen Catalog No. 31765), Fetal Bovine Serum (Invitrogen Catalog No. 16000), G418 (Geneticin, Cellgro Catalog No. 30234-CI), Phlorizidin (Sigma Catalog No. P3449), DPBS (Cellgro Catalog No. 21030-CV), ^14C-methyl-α-D-glucopyranoside (Amersham Catalog No. CFB 76), and Methyl-α-D-glucopyranoside (Sigma Catalog No. M-9376).
(§3) The cells were allowed to incubate for 24 hours. Subsequently, the medium was aspirated from the plates and the cells were washed one time with 150 μl assay buffer and incubate 15 min with another 150 μl assay buffer which comprised 50 mM HEPES pH 7.4, 20 mM Tris Base, 5 mM KCl, 1 mM MgCl2, 1 mM CaCl2, and 137 mM NaCl. After removing the wash buffer, 40 μl assay buffer and 10 μl compound solution was added to each well, which was again allowed to incubate for 10 min.
(§4) Following the 10 min incubation, 10 μl of serial diluted Methyl-α-D-glucopyranoside (Sigma Catalog No. M-9376) containing 0.07 μCi ^14C-methyl-α-D-glucopyranoside (Amersham Catalog No. CFB 76) was added to the appropriate well and allowed to incubate for another 2 hours. ^14C-methyl-α-D-glucopyranoside (Sigma Catalog No. M-9376, St. Louis, Mo.) is a non-metabolizable glucose analog specific for sodium-dependent glucose transporters as previously described by H. Peng and J. E. Lever in “Post-transcriptional regulation of Na+/glucose cotransporter (SGLT1) gene expression in LLC-PK1 cells,” J. Biol. Chem. 270, 20536-42 (1995).
(§5) Next, the plates were twice washed with 150 μl of ice-cold DPBS (Cellgro Catalog No. 21030) that was then completely removed from the plates before adding 50 μl of MicroScint™-20 (Packard Catalog No. 6013621) to each well for a 20 min or longer incubation time.
(§6) Sodium-dependent ^14C-methyl-α-D-glucopyranoside uptake was quantified by measuring radioactivity. Plates were counted in a TopCount (Packard, Meriden, Conn.). Results are reported as the %-inhibition or IC50 value from a representative experiment. Variability for the functional assay was typically within 20%.

The target of a further assay is T2, human SGLT2 (Homo sapiens, UniProt P31639).
T2 construct: expressed in transfected cells
T2 sequence (P31639 1-672): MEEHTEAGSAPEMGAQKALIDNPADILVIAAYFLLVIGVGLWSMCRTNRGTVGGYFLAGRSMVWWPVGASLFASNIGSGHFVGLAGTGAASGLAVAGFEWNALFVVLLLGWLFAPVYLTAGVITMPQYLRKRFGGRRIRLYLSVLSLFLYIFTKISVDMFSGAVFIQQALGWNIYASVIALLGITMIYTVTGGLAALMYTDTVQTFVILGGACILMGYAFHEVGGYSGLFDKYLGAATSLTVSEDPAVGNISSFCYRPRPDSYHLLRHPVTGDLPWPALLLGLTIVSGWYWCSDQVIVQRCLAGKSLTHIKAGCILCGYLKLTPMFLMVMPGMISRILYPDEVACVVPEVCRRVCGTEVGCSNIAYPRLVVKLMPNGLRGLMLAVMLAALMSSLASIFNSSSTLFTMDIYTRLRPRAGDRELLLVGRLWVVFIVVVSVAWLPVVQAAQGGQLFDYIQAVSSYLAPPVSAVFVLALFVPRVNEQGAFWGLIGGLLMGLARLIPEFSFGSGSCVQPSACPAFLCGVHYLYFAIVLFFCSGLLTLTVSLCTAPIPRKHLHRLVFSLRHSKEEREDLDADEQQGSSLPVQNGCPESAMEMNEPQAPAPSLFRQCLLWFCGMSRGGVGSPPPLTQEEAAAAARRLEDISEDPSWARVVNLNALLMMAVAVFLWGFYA
In words: Sodium-dependent 14C-methyl-α-D-glucopyranoside uptake in CHO-K1 cells stably expressing human SGLT2. It counts as cell-based. To be noted: for inhibition at 3 µM: compound at 3 μM; for IC50: 14C-methyl-α-D-glucopyranoside uptake; for inhibition at 0.3 µM: compound at 0.3 μM; for inhibition at 0.1 µM: compound at 0.1 μM. Here is the method: as §1, §2, §3, §4, §5, §6

For orientation: inhibition means the percentage by which the read-out fell short of the control. For `Cc1cc(O)c([C@@H]2O[C@H](CO)C[C@H](O)[C@H]2O)cc1C(=O)c1cc2ccccc2s1` [Cpd 6, benzo[b]thiophen-2-yl(5-((2S,3R,4S,6S)-3,4-dihydroxy-6-(hydroxymethyl)-tetrahydro-2H-pyran-2-yl)-4-hydroxy-2-methylphenyl)methanone], the inhibition at 3 µM on human SGLT1 and on human SGLT2 was 0% in each case.

As usually defined, the IC50 is the concentration that inhibits the measured activity by half. A lower IC50 goes with inhibition by little substance. In the case of `COc1cc(O)c([C@@H]2O[C@H](CO)C[C@H](O)[C@H]2O)cc1Cc1cc2ccccc2s1` [Cpd 2, (2S,3R,4S,6S)-2-(5-(benzo[b]thiophen-2-ylmethyl)-2-hydroxy-4-methoxyphenyl)-6-(hydroxymethyl)tetrahydro-2H-pyran-3,4-diol], the IC50 was 155 nM on human SGLT1 and 114 nM against human SGLT2.

The molecule `N#Cc1cc(O)c([C@@H]2O[C@H](CO)C[C@H](O)[C@H]2O)cc1Cc1cc2ccccc2s1` [Cpd 13, 2-(benzo[b]thiophen-2-ylmethyl)-4-((2S,3R,4S,6S)-3,4-dihydroxy-6-(hydroxymethyl)tetrahydro-2H-pyran-2-yl)-5-hydroxybenzonitrile] came in with an inhibition at 3 µM on human SGLT1 of 57%. Besides, on human SGLT2, the inhibition at 0.3 µM came out at 73%.

Regarding `C=Cc1cc(O)c([C@@H]2O[C@H](CO)C[C@H](O)[C@H]2O)cc1Cc1cc2ccccc2s1` [Cpd 17, (2S,3R,4S,6S)-2-(5-(benzo[b]thiophen-2-ylmethyl)-2-hydroxy-4-vinylphenyl)-6-(hydroxymethyl)tetrahydro-2H-pyran-3,4-diol], the inhibition at 0.1 µM on human SGLT1 came out at 58%; against human SGLT2, 64%.

Regarding `Cc1cc(O)c([C@@H]2O[C@H](CO)C[C@H](O)[C@H]2O)cc1C1(c2cc3ccccc3s2)CC1` [Cpd 10, (2S,3R,4S,6S)-2-(5-(1-(benzo[b]thiophen-2-yl)cyclopropyl)-2-hydroxy-4-methylphenyl)-6-(hydroxymethyl)tetrahydro-2H-pyran-3,4-diol], the IC50 was over 3000 nM against human SGLT1 and 223 nM at human SGLT2.

`CCc1cc(O)c([C@@H]2O[C@H](CO)C[C@H](O)[C@H]2O)cc1Cc1cc2ccccc2s1` [Cpd 11, (2S,3R,4S,6S)-2-(5-(benzo[b]thiophen-2-ylmethyl)-4-ethyl-2-hydroxyphenyl)-6-(hydroxymethyl)tetrahydro-2H-pyran-3,4-diol] came in with an inhibition at 3 µM on human SGLT1 of 95%. On human SGLT2, this molecule displayed an IC50 of 61 nM.

On to `Cc1cc(O)c([C@@H]2O[C@H](CO)C[C@H](O)[C@H]2O)cc1Cc1cc2ccccc2o1` [Cpd 28, (2S,3R,4S,6S)-2-(5-(benzofuran-2-ylmethyl)-2-hydroxy-4-methylphenyl)-6-(hydroxymethyl)tetrahydro-2H-pyran-3,4-diol], for which the inhibition at 0.1 µM turned out to be 33% at human SGLT1 and 69% against human SGLT2.

On to `Cc1cc(-c2ccc[nH]2)c([C@@H]2O[C@H](CO)C[C@H](O)[C@H]2O)cc1Cc1cc2ccccc2s1` [Cpd 26, (2S,3R,4S,6S)-2-(5-(benzo[b]thiophen-2-ylmethyl)-4-methyl-2-(1H-pyrrol-2-yl)phenyl)-6-(hydroxymethyl)tetrahydro-2H-pyran-3,4-diol], for which the figures for the inhibition at 0.1 µM at human SGLT1 and against human SGLT2 were 33% and 57%, respectively.

As for `Cc1cc(Br)c([C@@H]2O[C@H](CO)C[C@H](O)[C@H]2O)cc1Cc1cc2ccccc2s1` [Cpd 25, (2S,3R,4S,6S)-2-(5-(benzo[b]thiophen-2-ylmethyl)-2-bromo-4-methylphenyl)-6-(hydroxymethyl)tetrahydro-2H-pyran-3,4-diol], the values for the inhibition at 0.1 µM against human SGLT1 and against human SGLT2 were 26% and 47%, respectively.

As for `Cc1cc(Br)c([C@@H]2O[C@H](CO)C[C@H](O)[C@H]2O)cc1Cc1ccc(-c2ccc(F)cc2)s1` [Cpd 30, (2S,3R,4S,6S)-2-(2-bromo-5-((5-(4-fluorophenyl)thiophen-2-yl)methyl)-4-methylphenyl)-6-(hydroxymethyl)tetrahydro-2H-pyran-3,4-diol], the inhibition at 0.1 µM at human SGLT1 is 44%; on human SGLT2, 73%.

Consider `C=C(c1cc2ccccc2s1)c1cc([C@@H]2O[C@H](CO)C[C@H](O)[C@H]2O)c(O)cc1C` [Cpd 8, (2S,3R,4S,6S)-2-(5-(1-(benzo[b]thiophen-2-yl)vinyl)-2-hydroxy-4-methylphenyl)-6-(hydroxymethyl)tetrahydro-2H-pyran-3,4-diol], for which the inhibition at 3 µM is 41% against human SGLT1 and 25% against human SGLT2.

For `COc1c(Cc2cc3ccccc3s2)cc([C@@H]2O[C@H](CO)C[C@H](O)[C@H]2O)c(O)c1F` [Cpd 21, (2S,3R,4S,6S)-2-(5-(benzo[b]thiophen-2-ylmethyl)-3-fluoro-2-hydroxy-4-methoxyphenyl)-6-(hydroxymethyl)tetrahydro-2H-pyran-3,4-diol], the inhibition at 0.1 µM is 26% at human SGLT1 and 78% against human SGLT2.

As for `COc1c([C@@H]2O[C@H](CO)C[C@H](O)[C@H]2O)cc(Cc2cc3ccccc3s2)c(C)c1C` [Cpd 23, (2S,3R,4S,6S)-2-(5-(benzo[b]thiophen-2-ylmethyl)-2-methoxy-3,4-dimethylphenyl)-6-(hydroxymethyl)tetrahydro-2H-pyran-3,4-diol], the inhibition at 0.1 µM against human SGLT1 came to 50%; against human SGLT2 it was 70%.

The molecule `O=C(c1cc2ccccc2s1)c1cc([C@@H]2O[C@H](CO)C[C@H](O)[C@H]2O)c(O)cc1O` [Cpd 18, benzo[b]thiophen-2-yl(5-((2S,3R,4S,6S)-3,4-dihydroxy-6-(hydroxymethyl)tetrahydro-2H-pyran-2-yl)-2,4-dihydroxyphenyl)methanone] had an inhibition at 3 µM against human SGLT1 of 19%. The same molecule returned an inhibition at 0.3 µM against human SGLT2 of 13%.

In the case of `COc1cc(O)c([C@@H]2O[C@H](CO)C[C@H](O)[C@H]2O)cc1C(=O)c1cc2ccccc2s1` [Cpd 5, benzo[b]thiophen-2-yl(5-((2S,3R,4S,6S)-3,4-dihydroxy-6-(hydroxymethyl)tetrahydro-2H-pyran-2-yl)-4-hydroxy-2-methoxyphenyl)methanone], the inhibition at 3 µM at human SGLT1 and at human SGLT2 was 0% throughout.
